This series concerns rodent lifetime carcinogenesis bioassay, tumor incidence TD50. As to the kind of experiment: carcinogenic potency in animals, long-term in vivo studies, CPDB compilation (AID 1745844).
[1] abbreviates: mouse, strain ASH-CS1, females, in feed, site: liver, lesion: one or several types, types not named, dosed 80 weeks, study length 80 weeks.
The mark [2] stands for this setting: mouse, strain B6C3F1, females, in feed, site: any site (literature study), lesion: several types, types named in the paper, dosed 103 weeks, study length 105 weeks.
Setting [3] is: mouse, strain B6C3F1, males, in feed, site: any site (literature study), lesion: several types, types named in the paper, dosed 103 weeks, study length 105 weeks.
Where [4] appears, read: mouse, strain B6C3F1, males, in feed, site: liver, lesion: hepatocellular adenoma + hepatocellular carcinoma + neoplastic nodule, dosed 103 weeks, study length 105 weeks.

Usually TD50 stands for the 50% point of the dose-response relation for the toxic effect studied.

Activity calls are given as the source filed them. How the calls were made is not given here.

`CCN(Cc1cccc(S(=O)(=O)[O-])c1)c1ccc(C(=C2C=CC(=[N+](C)C)C=C2)c2ccc(N(CC)Cc3cccc(S(=O)(=O)O)c3)cc2)cc1`: the carcinogen call was “negative (inactive)” under setting [1]; “negative (inactive)” (mouse, strain ASH-CS1, males, in feed, site: liver, lesion: one or several types, types not named, dosed 80 weeks, study length 80 weeks); “negative (inactive)” (mouse, strain ASH-CS1, males, in feed, site: lung, lesion: adenoma, dosed 80 weeks, study length 80 weeks). The TD50 is 1910 mg/kg/day (inactive) (mouse, strain ASH-CS1, females, in feed, site: lung, lesion: adenoma, dosed 80 weeks, study length 80 weeks); 4660 mg/kg/day (inactive) (mouse, strain ASH-CS1, males, in feed, site: lung, lesion: adenocarcinoma, dosed 80 weeks, study length 80 weeks); 568 mg/kg/day (rat, strain Sprague-Dawley albino, females, in feed, site: any site (literature study), lesion: malignant tumor, dosed 52 weeks, study length 52 weeks); 660 mg/kg/day (rat, strain Sprague-Dawley albino, females, in feed, site: any site (literature study), lesion: several types, types named in the paper, dosed 52 weeks, study length 52 weeks); 1600 mg/kg/day (rat, strain Sprague-Dawley albino, females, in feed, site: ear duct, lesion: carcinoma, dosed 52 weeks, study length 52 weeks); 1140 mg/kg/day (rat, strain Sprague-Dawley albino, females, in feed, site: mammary gland, lesion: carcinoma, dosed 52 weeks, study length 52 weeks). For the same compound, the TD50 was 418 mg/kg/day (rat, strain Sprague-Dawley, females, in feed, site: any site (literature study), lesion: several types, types named in the paper, dosed 51 weeks, study length 52 weeks); 573 mg/kg/day (rat, strain Sprague-Dawley, females, in feed, site: mammary gland, lesion: carcinoma, dosed 51 weeks, study length 52 weeks); 1100 mg/kg/day (rat, strain Sprague-Dawley, females, in feed, site: skin, lesion: squamous-cell carcinoma, dosed 51 weeks, study length 52 weeks).
Turning to `O=S(=O)(O)c1ccc(N=Nc2cc(S(=O)(=O)O)c3ccccc3c2O)c2ccccc12`, the carcinogen call reads like this: under setting [1], “negative (inactive)”; (mouse, strain ASH-CS1, males, in feed, site: liver, lesion: adenoma, dosed 80 weeks, study length 80 weeks) “negative (inactive)”; (mouse, strain ASH-CS1, males, in feed, site: liver, lesion: nodular hyperplasia, dosed 80 weeks, study length 80 weeks) “negative (inactive)”; (mouse, strain B6C3F1, females, in feed, site: any site (literature study), lesion: several types, types named in the paper, dosed 103 weeks, study length 104 weeks) “negative (inactive)”; (mouse, strain B6C3F1, males, in feed, site: any site (literature study), lesion: several types, types named in the paper, dosed 103 weeks, study length 103 weeks) “negative (inactive)”. The TD50 is 32900 mg/kg/day (inactive) (mouse, strain ASH-CS1, females, in feed, site: lung, lesion: papillary adenoma, dosed 80 weeks, study length 80 weeks); 12300 mg/kg/day (inactive) (mouse, strain ASH-CS1, males, in feed, site: lung, lesion: papillary adenoma, dosed 80 weeks, study length 80 weeks); 7180 mg/kg/day (rat, strain Fischer 344, females, in feed, site: any site (literature study), lesion: several types, types named in the paper, dosed 103 weeks, study length 104 weeks); 16400 mg/kg/day (rat, strain Fischer 344, females, in feed, site: clitoral gland, lesion: sebaceous adenoma, dosed 103 weeks, study length 104 weeks); 3270 mg/kg/day (inactive) (rat, strain Fischer 344, females, in feed, site: uterus, lesion: endometrial stromal polyp, dosed 103 weeks, study length 104 weeks); 1860 mg/kg/day (inactive) (rat, strain Fischer 344, males, in feed, site: any site (literature study), lesion: several types, types named in the paper, dosed 103 weeks, study length 104 weeks). The TD50 (rat, strain Fischer 344, males, in feed, site: liver, lesion: hepatocellular adenoma + hepatocellular carcinoma + neoplastic nodule, dosed 103 weeks, study length 104 weeks) is 9850 mg/kg/day.
Consider `CO[C@H]1[C@@H](O)[C@@H](CO)OC(OC2C3CO[C@H]2[C@H](O)C(C)O3)[C@@H]1O` (stereo partly drawn), for which the carcinogen call under setting [2] is “negative (inactive)”. The TD50 is, setting by setting: under setting [3], 54900 mg/kg/day; under setting [4], 33100 mg/kg/day; (mouse, strain B6C3F1, males, in feed, site: liver, lesion: hepatocellular adenoma, dosed 103 weeks, study length 105 weeks) 18800 mg/kg/day (inactive); (mouse, strain B6C3F1, males, in feed, site: lung, lesion: alveolar/bronchiolar adenoma + alveolar/bronchiolar carcinoma, dosed 103 weeks, study length 105 weeks) 102000 mg/kg/day; (rat, strain Fischer 344, females, in feed, site: adrenal gland, lesion: cortical adenoma, dosed 103 weeks, study length 105 weeks) 25800 mg/kg/day (inactive); (rat, strain Fischer 344, males, in feed, site: any site (literature study), lesion: several types, types named in the paper, dosed 103 weeks, study length 105 weeks) 39300 mg/kg/day (inactive). For the same compound, the TD50 (rat, strain Fischer 344, males, in feed, site: liver, lesion: hepatocellular adenoma + hepatocellular carcinoma + neoplastic nodule, dosed 103 weeks, study length 105 weeks) came to 25900 mg/kg/day.
Regarding `Nc1cccc2c(N)cccc12`, the TD50 runs as follows: under setting [2], 223 mg/kg/day; (mouse, strain B6C3F1, females, in feed, site: liver + lung + thyroid gland, lesion: hepatocellular adenoma + hepatocellular carcinoma + alveolar/bronchiolar adenoma + alveolar/bronchiolar carcinoma + c-cell adeno, dosed 103 weeks, study length 105 weeks) 66.6 mg/kg/day; (mouse, strain B6C3F1, females, in feed, site: liver, lesion: hepatocellular adenoma + hepatocellular carcinoma + neoplastic nodule, dosed 103 weeks, study length 105 weeks) 129 mg/kg/day; (mouse, strain B6C3F1, females, in feed, site: liver, lesion: hepatocellular adenoma + hepatocellular carcinoma, dosed 103 weeks, study length 105 weeks) 129 mg/kg/day; (mouse, strain B6C3F1, females, in feed, site: liver, lesion: hepatocellular carcinoma, dosed 103 weeks, study length 105 weeks) 115 mg/kg/day; (mouse, strain B6C3F1, females, in feed, site: lung, lesion: alveolar/bronchiolar adenoma + alveolar/bronchiolar carcinoma, dosed 103 weeks, study length 105 weeks) 331 mg/kg/day. The TD50 runs as follows: (mouse, strain B6C3F1, females, in feed, site: thyroid gland, lesion: c-cell adenoma + c-cell carcinoma, dosed 103 weeks, study length 105 weeks) 936 mg/kg/day; (mouse, strain B6C3F1, females, in feed, site: thyroid gland, lesion: c-cell carcinoma, dosed 103 weeks, study length 105 weeks) 1320 mg/kg/day; (mouse, strain B6C3F1, females, in feed, site: thyroid gland, lesion: follicular-cell adenoma + papillary cystadenoma, NOS + papillary adenoma, dosed 103 weeks, study length 105 weeks) 327 mg/kg/day; under setting [3], 583 mg/kg/day; under setting [4], 1640 mg/kg/day; (mouse, strain B6C3F1, males, in feed, site: thyroid gland, lesion: c-cell adenoma + c-cell carcinoma + follicular-cell adenoma + papillary cystadenoma, NOS + papillary adenoma, dosed 103 weeks, study length 105 weeks) 217 mg/kg/day. Besides, the TD50 is 1260 mg/kg/day (mouse, strain B6C3F1, males, in feed, site: thyroid gland, lesion: c-cell adenoma + c-cell carcinoma, dosed 103 weeks, study length 105 weeks); 1910 mg/kg/day (mouse, strain B6C3F1, males, in feed, site: thyroid gland, lesion: c-cell carcinoma, dosed 103 weeks, study length 105 weeks); 276 mg/kg/day (mouse, strain B6C3F1, males, in feed, site: thyroid gland, lesion: follicular-cell adenoma + papillary cystadenoma, NOS + papillary adenoma, dosed 103 weeks, study length 105 weeks); 55.8 mg/kg/day (rat, strain Fischer 344, females, in feed, site: any site (literature study), lesion: several types, types named in the paper, dosed 103 weeks, study length 106 weeks); 50.8 mg/kg/day (rat, strain Fischer 344, females, in feed, site: clitoral gland + uterus, lesion: adenoma, NOS + carcinoma, NOS + endometrial stromal polyp, dosed 103 weeks, study length 106 weeks); 137 mg/kg/day (rat, strain Fischer 344, females, in feed, site: clitoral gland, lesion: adenoma, NOS + carcinoma, NOS, dosed 103 weeks, study length 106 weeks). Besides, the TD50 reads like this: (rat, strain Fischer 344, females, in feed, site: liver, lesion: hepatocellular adenoma + hepatocellular carcinoma + neoplastic nodule, dosed 103 weeks, study length 106 weeks) 236 mg/kg/day; (rat, strain Fischer 344, females, in feed, site: thyroid gland, lesion: c-cell adenoma + c-cell carcinoma, dosed 103 weeks, study length 106 weeks) 57.6 mg/kg/day; (rat, strain Fischer 344, females, in feed, site: uterus, lesion: endometrial stromal polyp, dosed 103 weeks, study length 106 weeks) 69.6 mg/kg/day; (rat, strain Fischer 344, males, in feed, site: any site (literature study), lesion: several types, types named in the paper, dosed 103 weeks, study length 106 weeks) 48.1 mg/kg/day (inactive); (rat, strain Fischer 344, males, in feed, site: liver, lesion: hepatocellular adenoma + hepatocellular carcinoma + neoplastic nodule, dosed 103 weeks, study length 106 weeks) 1040 mg/kg/day.
`CCCCCCCCS(=O)C(C)Cc1ccc2c(c1)OCO2` (stereo not drawn): the TD50 by setting is: (mouse, strain B6AKF1, males, oral dosing, site: liver, lesion: hepatoma, dosed 76 weeks, study length 76 weeks) 88.2 mg/kg/day; (mouse, strain B6C3F1, females, in feed, site: liver, lesion: hepatocellular adenoma + hepatocellular carcinoma + neoplastic nodule, dosed 104 weeks, study length 104 weeks) 725 mg/kg/day; (mouse, strain B6C3F1, females, oral dosing, site: any site (literature study), lesion: several types, types named in the paper, dosed 76 weeks, study length 76 weeks) 100 mg/kg/day; (mouse, strain B6C3F1, males, in feed, site: any site (literature study), lesion: several types, types named in the paper, dosed 104 weeks, study length 104 weeks) 423 mg/kg/day; (mouse, strain B6C3F1, males, in feed, site: liver, lesion: hepatocellular adenoma + hepatocellular carcinoma + neoplastic nodule, dosed 104 weeks, study length 104 weeks) 62.2 mg/kg/day; (mouse, strain B6C3F1, males, in feed, site: liver, lesion: hepatocellular carcinoma, dosed 104 weeks, study length 104 weeks) 62.2 mg/kg/day. The TD50 was 9.1 mg/kg/day (mouse, strain B6C3F1, males, oral dosing, site: all sites, lesion: reticulum-cell sarcoma, dosed 76 weeks, study length 76 weeks); 7.72 mg/kg/day (mouse, strain B6C3F1, males, oral dosing, site: any site (literature study), lesion: several types, types named in the paper, dosed 76 weeks, study length 76 weeks); 45.4 mg/kg/day (mouse, strain B6C3F1, males, oral dosing, site: liver, lesion: hepatoma, dosed 76 weeks, study length 76 weeks); 2300 mg/kg/day (inactive) (rat, strain Fischer 344, females, in feed, site: any site (literature study), lesion: several types, types named in the paper, dosed 105 weeks, study length 105 weeks); 2650 mg/kg/day (rat, strain Fischer 344, males, in feed, site: liver, lesion: hepatocellular adenoma + hepatocellular carcinoma + neoplastic nodule, dosed 105 weeks, study length 105 weeks). In addition, the carcinogen call (mouse, strain B6C3F1, females, in feed, site: any site (literature study), lesion: several types, types named in the paper, dosed 104 weeks, study length 104 weeks) was “negative (inactive)” and the carcinogen call (rat, strain Fischer 344, males, in feed, site: any site (literature study), lesion: several types, types named in the paper, dosed 105 weeks, study length 105 weeks) is “negative (inactive)”.

Values taken from PubChem BioAssay AID1745844 (Carcinogenic Potency Database (CPDB), 2022).
